Measurements published in PubChem BioAssay (NCI).
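Briefly, cells in 96-well plates were exposed to five compound concentrations for 48 h, and endpoints were estimated by linear interpolation. GI50 is the concentration that inhibits growth by half. TGI: total growth inhibition.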

Legend:
Assay in all cases: NCI-60 cell line screen, 48 h
M14 melanoma = tested on: M14 melanoma
DU-145 prostate = tested on: DU-145 prostate
HS 578T breast = tested on: HS 578T breast
MDA-MB-435 = tested on: MDA-MB-435
OVCAR-4 ovarian = tested on: OVCAR-4 ovarian
COLO 205 colon = tested on: COLO 205 colon
OVCAR-3 ovarian = tested on: OVCAR-3 ovarian
OVCAR-8 ovarian = tested on: OVCAR-8 ovarian
UACC-62 melanoma = tested on: UACC-62 melanoma
EKVX NSCLC = tested on: EKVX NSCLC

| SMILES | GI50 (M14 melanoma) [nM] | TGI (M14 melanoma) [µM] | GI50 (DU-145 prostate) [nM] | TGI (DU-145 prostate) [µM] | GI50 (HS 578T breast) [nM] | TGI (HS 578T breast) [µM] | GI50 (MDA-MB-435) [nM] | TGI (MDA-MB-435) [µM] | GI50 (OVCAR-4 ovarian) [nM] | TGI (OVCAR-4 ovarian) [µM] | GI50 (COLO 205 colon) [nM] | TGI (COLO 205 colon) [µM] | GI50 (OVCAR-3 ovarian) [nM] | TGI (OVCAR-3 ovarian) [µM] | GI50 (OVCAR-8 ovarian) [nM] | TGI (OVCAR-8 ovarian) [µM] | GI50 (UACC-62 melanoma) [nM] | TGI (UACC-62 melanoma) [µM] | GI50 (EKVX NSCLC) [nM] | TGI (EKVX NSCLC) [µM] |
| --- | --- | --- | --- | --- | --- | --- | --- | --- | --- | --- | --- | --- | --- | --- | --- | --- | --- | --- | --- | --- |
| CSc1ccc(-c2ccccc(=O)c2O)cc1 | 347 | 2.68 | 849 | > 100 | 2770 | 99.7 | 646 | > 100 | 271 | 67.3 | 1980 | > 100 | 373 | 29.7 | 390 | 64.8 | 397 | 2.92 | 280 | 3.96 |
| Nc1nc2c(ncn2C2CCC(CO)O2)c(=O)n1C(=O)c1ccccc1 (stereo unspecified) |  | > 100 |  | > 100 |  | > 100 |  | > 100 |  | > 100 |  | > 100 |  | > 100 |  | > 100 |  | > 100 |  | > 100 |
| N#Cc1c(NC(=O)NCc2ccccc2)sc2c1CCCC2 | 421 | > 100 | 801 | > 33.5 | 404 | > 100 | 215 | 0.595 | 1780 | > 100 | 593 | > 28.9 | 344 | 1.87 | 2290 | > 100 | 455 | > 100 | 2000 | > 100 |
| COC1C(CO)OC(n2c3ccccc3c3c4c(c5c6ccccc6[nH]c5c32)C(=O)NC4=O)C(O)C1O (stereo unspecified) | 44.1 | 0.347 | 43.9 | 0.572 | 180 | 0.757 | 63.3 | 0.901 | 342 | 17.7 | < 36 | 2.14 | 78.5 | 0.369 | 32.7 | 1.48 | 16.9 | 0.0902 | 326 | 2.34 |
| CC[C@H]1CN2CCc3cc(OC)c(OC)cc3C2C[C@@H]1CC1NCCc2cc(OC)c(OC)cc21 (stereo partly specified) |  | 0.0487 |  | 0.105 |  | 1.75 | 16.1 | 0.112 |  | 0.0481 |  | 0.017 |  | 0.197 |  | 0.18 |  | 0.316 |  | 0.136 |
| CC[C@@H]1[C@@H](C)O[C@@](O)([C@@H](C)[C@H](O)[C@H](C)[C@H]2OC(=O)/C=C/C=C/[C@H](C)[C@@H]([C@@H](C)[C@@H](O)[C@H](C)[C@@]3(O)C[C@@H](O[C@H]4C[C@@H](O)[C@H](O)C(C)O4)[C@H](CC)[C@@H](C)O3)OC(=O)/C=C/C=C/[C@@H]2C)C[C@H]1O[C@@H]1C[C@@H](O)[C@H](O)C(C)O1 (stereo partly specified) | 65.3 | 0.142 | 73.2 | 0.169 | 79.8 | 0.253 | 86.7 | 0.261 | 74.1 | 0.192 | 79.5 | 0.179 | 79.1 | 0.219 | 138 | 0.557 | 60.4 | 0.152 | 110 | 0.468 |
| CCN(CC)CCNc1ccc(C)c2sc3cc(Cl)ccc3c(=O)c12 | 1800 | 3.4 | 1780 | 3.17 | 1650 | 3.9 | 1700 | 3.14 | 1950 | 5.13 | 1620 | 3.35 | 1730 | 3.23 | 1900 | 3.49 | 1870 | 3.54 | 1470 | 3.1 |
| CCC(CC)c1nc(Nc2ccc(C(=O)OC)cc2)c2ccccc2n1 | 10000 | 21.6 | > 22700 | > 31.1 | 10900 | 26.5 | > 18300 | > 25.6 | 7450 | 18.6 | 8200 | 15 | 5700 | 21 | 12900 | > 31.4 | 9130 | 18.6 | 15900 | > 29.4 |
| O=C1C(Cl)=C(Sc2nnc3c4ccccc4c4ccccc4c3n2)C(=O)c2ccccc21 |  | 35 |  | 22 |  | > 100 |  | 3.41 |  | 29.2 |  | 38.9 |  | 27.2 |  | 29.6 |  | 29.8 |  | 37.7 |
| COc1ccc(N=Cc2c(O)ccc3c2oc2cc(Cl)c(O)c(Cl)c23)cc1 | 20900 | 61.2 | 18900 | 45.9 | 4450 | 23.1 | 11600 | 43.2 | 16300 | > 100 | 16000 | 33.2 | 6910 | 22.3 | 15000 | 45.9 | 10300 | 33.7 | 10700 | 38 |
| CC(C)(C)N1CCC1CN (stereo unspecified) | > 100000 | > 100 | > 100000 | > 100 | > 100000 | > 100 | > 100000 | > 100 | > 100000 | > 100 | > 100000 | > 100 | > 100000 | > 100 | > 100000 | > 100 | > 100000 | > 100 | > 100000 | > 100 |
| CC12OOC(c3ccccc31)c1c2ccc2ccccc12 (stereo unspecified) |  | 22.6 |  | 32.4 |  | 78.7 |  | 18.2 |  | 2.43 |  | 3.24 |  | 5.81 |  | 20.9 |  | 21.2 |  | 18.7 |
| NCCCNc1nc2ccccc2c2c(=O)c3cc(F)cc(F)c3sc12 | 1790 | 3.3 | 1710 | 3.19 | 1470 | 3.09 | 1630 | 3.02 | 1750 | 3.61 | 1920 | 4.62 | 1720 | 3.19 | 2100 | 5.14 | 1810 | 3.48 | 1600 | 3.12 |
